Measurements: paper PMC9942557, “Bolaamphiphile Analogues of 12-bis-THA Cl2 Are Potent Antimicrobial Therapeutics with Distinct Mechanisms of Action against Bacterial, Mycobacterial, and Fungal Pathogens” (mSphere, 2022)

Tests used:
[1] = system: Klebsiella pneumoniae NCTC 13368; test: Broth microdilution MIC; type: cell-based; conditions: NCTC13368, read-out: MIC
Klebsiella pneumoniae M6 = test: Broth microdilution MIC; type: cell-based; conditions: read-out: MIC
[2] = system: Acinetobacter baumannii AYE; test: Broth microdilution MIC; type: cell-based; conditions: Acinetobacter baumannii AYE; read-out: MIC
[3] = system: Acinetobacter baumannii ATCC 17978; test: Broth microdilution MIC; type: cell-based; conditions: ATCC17978, read-out: MIC
[4] = system: Pseudomonas aeruginosa PAO1; test: Broth microdilution MIC; type: cell-based; conditions: read-out: MIC
[5] = system: Pseudomonas aeruginosa NCTC 13437; test: Broth microdilution MIC; type: cell-based; conditions: NCTC13437, read-out: MIC
[6] = system: Escherichia coli NCTC 12923; test: Broth microdilution MIC; type: cell-based; conditions: NCTC12923, read-out: MIC
[7] = system: EMR Staphylococcus aureus 15 NCTC 13616; test: Broth microdilution MIC; type: cell-based; conditions: NCTC13616; EMR Staphylococcus aureus 15 NCTC 13616; read-out: MIC
[8] = system: EMR Staphylococcus aureus 16 NCTC 13277; test: Broth microdilution MIC; type: cell-based; conditions: NCTC13277; EMR Staphylococcus aureus 16 NCTC 13277; read-out: MIC
[9] = system: VS Enterococcus faecalis NCTC 775; test: Broth microdilution MIC; type: cell-based; conditions: NCTC775, read-out: MIC
[10] = system: VR Enterococcus faecalis NCTC 12201; test: Broth microdilution MIC; type: cell-based; conditions: NCTC12201; VR Enterococcus faecalis NCTC 12201; read-out: MIC
[11] = system: VR Enterococcus faecium NCTC 12204; test: Broth microdilution MIC; type: cell-based; conditions: NCTC12204; VR Enterococcus faecium NCTC 12204; read-out: MIC
C. albicans 3179 = test: Broth microdilution MIC; type: cell-based, Candida albicans; conditions: Candida albicans; C. albicans 3179; read-out: MIC
C. albicans 3281 = test: Broth microdilution MIC; type: cell-based, Candida albicans; conditions: Candida albicans; C. albicans 3281; read-out: MIC
C. auris temp probe = test: Broth microdilution MIC; type: cell-based, Candida auris; conditions: Candidozyma auris; C. auris temp probe; read-out: MIC
C. tropicalis 8760 = test: Broth microdilution MIC; type: cell-based; conditions: Candida tropicalis; C. tropicalis 8760; read-out: MIC
C. parapsilosis 3209 = test: Broth microdilution MIC; type: cell-based; conditions: Lodderomyces parapsilosis, read-out: MIC
C. parapsilosis = test: Broth microdilution MIC; type: cell-based; conditions: Lodderomyces parapsilosis, read-out: MIC
M. smegmatis mc^2 155 = test: Broth microdilution MIC (Middlebrook 7H9); type: cell-based, Mycobacterium smegmatis; conditions: Mycolicibacterium smegmatis, MC^2155, read-out: MIC
M. tuberculosis Bleupan = test: microbe, parasite or virus in culture; type: cell-based, Mycobacterium tuberculosis; conditions: Mycobacterium tuberculosis, read-out: MIC
HEK293 = test: In vitro toxicity for cell line; type: cell-based, human; conditions: Homo sapiens, HEK293, read-out: Toxicity (EC50)
Description: (§1) TABLE 2 Toxicity of bolaamphiphiles for two cell lines^a | column: Toxicity (EC50 [μg/ml]) of: / 12-bis-THA Cl2; Toxicity (EC50 [μg/ml]) of: / Dequalinium; Toxicity (EC50 [μg/ml]) of: / Quino-bola; Toxicity (EC50 [μg/ml]) of: / Penta-bola; Toxicity (EC50 [μg/ml]) of: / Hepta-bola; Toxicity (EC50 [μg/ml]) of: / Octa-bola; Toxicity (EC50 [μg/ml]) of: / Octa-C10; Toxicity (EC50 [μg/ml]) of: / Octa-C8; Toxicity (EC50 [μg/ml]) of: / Octa-C6

HeLa = test: In vitro toxicity for cell line; type: cell-based, human; conditions: Homo sapiens, read-out: Toxicity (EC50)
Description: as §1

[12] = system: Gram-negative bacteria (avg); test: Selectivity index (toxicity/potency); type: cell-based; conditions: ratio of average toxicity (HEK293 and HeLa) to average potency
Description: (§2) TABLE 3 Selectivity indices of bolaamphiphiles | column: Selectivity of^a: / 12-bis-THA Cl2; Selectivity of^a: / Dequalinium; Selectivity of^a: / Quino-bola; Selectivity of^a: / Penta-bola; Selectivity of^a: / Hepta-bola; Selectivity of^a: / Octa-bola; Selectivity of^a: / Octa-C10; Selectivity of^a: / Octa-C8; Selectivity of^a: / Octa-C6

[13] = system: Gram-positive bacteria (avg); test: Selectivity index (toxicity/potency); type: cell-based; conditions: ratio of average toxicity (HEK293 and HeLa) to average potency
Fungi (avg) = test: Selectivity index (toxicity/potency); type: cell-based, Candida spp.; conditions: ratio of average toxicity (HEK293 and HeLa) to average potency
Description: as §2

P. aeruginosa PAO1 = test: Checkerboard synergy assay; type: cell-based, Pseudomonas aeruginosa; conditions: Pseudomonas aeruginosa, read-out: MIC Alone Bolalipid
[14] = system: Escherichia coli ATCC 25922; test: Intrahemocoelic G. mellonella infection model; type: in vivo, Galleria mellonella; conditions: single 10-mg/kg dose 1 h after infection
Procedure: The antimicrobial activities of DQC, CM2, and its analogues Quino-bola, Penta-bola, Hepta-bola, and Octa-bola against Escherichia coli ATCC 25922 were tested in Galleria mellonella larvae. All assays were performed on two separate occasions using a group size of 10 larvae; the larvae were kept in separate petri dishes and in a static incubator at 37°C during the period of the experiment. A suspension of E. coli ATCC 25922 was prepared by transferring two colonies of E. coli ATCC 25922 from a fresh agar plate into PBS and adjusting the absorbance to a McFarland 0.5 standard. The number of CFU per milliliter of this suspension was determined and corresponded to 1 × 10^8 CFU/mL. Larvae were injected beneath the tegument with 10 μL of a 1 × 10^7-CFU/mL bacteria suspension, corresponding to 1 × 10^5 CFU per larva. A 50-μL Hamilton syringe with a G27 needle was used for the injection. […] Ten microliters of stock solution was injected into each larva 1 h after infection (10 mg/kg). Levofloxacin (LVX; 50 μg/mL = 2 mg/kg) and PBS were used as positive and negative controls, respectively. A noninfected PBS injection was included to control for the effects of injection. Survival was monitored over a period of 70 to 72 h. Changes in G. mellonella survival were analyzed by the log rank (Mantel-Cox) method and plotted as Kaplan-Meier survival curves using GraphPad Prism version 7.

Nc1c2c([n+](CCCCCCCCCCCC[n+]3c4c(c(N)c5ccccc53)CCCCCC4)c3ccccc13)CCCCCC2 [Octa-bola]
MIC [1]: 32 µg/mL
MIC (Klebsiella pneumoniae M6): 16 µg/mL
MIC [2]: 8 µg/mL
MIC [3]: 8 µg/mL
MIC [4]: 32 µg/mL
MIC [5]: 32 µg/mL
MIC [6]: 2 µg/mL
MIC [7]: 0.125 µg/mL
MIC [8]: 0.125 µg/mL
MIC [9]: 0.5 µg/mL
MIC [10]: 1 µg/mL
MIC [11]: 0.5 µg/mL
MIC (C. albicans 3179): 0.5 µg/mL
MIC (C. albicans 3281): 0.5 µg/mL
MIC (C. auris temp probe): 1 µg/mL
MIC (C. tropicalis 8760): 0.25 µg/mL
MIC (C. parapsilosis 3209): 0.5 µg/mL
MIC (C. parapsilosis): 1 µg/mL
MIC (M. smegmatis mc^2 155): 0.55 µg/mL
MIC (M. tuberculosis Bleupan): 0.24 µg/mL
EC50 (HEK293): 3.8 ± 0.3 µg/mL
EC50 (HeLa): 4.5 ± 0.7 µg/mL
Selectivity index [12]: 0.53
Selectivity index [13]: 17.4
Selectivity index (Fungi (avg)): 8.30
MIC (P. aeruginosa PAO1): 32 µg/mL
protection (survival over 72 h) [14]: significantly protective
